Assay results reported in ChEMBL document CHEMBL1938253, “Design and synthesis of novel macrocyclic 2-amino-6-arylpyrimidine Hsp90 inhibitors” (Bioorg Med Chem Lett, 2012).
Converted amounts (≈) assume the structure as drawn.

What was measured:
in vitro [1] = conditions: mouse, liver microsomes
in vitro [2] = conditions: human, liver microsomes
physchem = conditions: fasted state simulated intestinal fluid
[3] = target: Heat shock protein HSP 90-alpha (Homo sapiens, UniProt P07900)
Description: Binding affinity to N-terminus biotinylated human Hsp90 alpha by surface plasmon resonance assay

[4] = Tmax in athymic nu/nu mouse at 200 mg/kg, po; format: ADME, organism-based; design: dose 200 mg/kg, route oral; conditions: in vivo
[5] = Half life in athymic nu/nu mouse at 10 mg/kg, iv; format: ADME, organism-based; design: dose 10 mg/kg, route intravenous; conditions: in vivo

Structure (SMILES)	microsomal CLint at 1 h, 5 µM (in vitro [1]) [µL/min/mg]	microsomal CLint at 1 h, 5 µM (in vitro [2]) [µL/min/mg]	solubility (physchem) [µM]	Kd [3] [nM]	Tmax [4] [min]	half-life [5] [min]
Nc1nc2cc(n1)-c1cc(c(Cl)cc1Cl)OCCCCOc1cccc(c1)S2	–	–	< 7	11	–	–
CCOc1cc(C)c2cc1C(=O)NCCCOc1cccc(c1)Sc1cc-2nc(N)n1	–	–	186 (≈ 81.2 µg/mL)	10	–	–
Cc1cc(C)c2cc1C(=O)NCCCCCOc1cccc(c1)Sc1cc-2nc(N)n1	–	–	39 (≈ 16.9 µg/mL)	–	–	–
Cc1ccc2cc1-c1cc(nc(N)n1)Sc1cccc(c1)OCCCO2	–	–	–	120	–	–
CSc1nc(N)nc(-c2ccc3c4c(cc(Cl)cc24)COC3)n1	60	43	29 (≈ 10 µg/mL)	3.4	30	15
COc1cc(C)c2cc1C(=O)NCCCOc1cccc(c1)Sc1cc-2nc(N)n1	–	–	260 (≈ 110 µg/mL)	5.8	–	–

More lines, now with the values ahead:

microsomal CLint at 1 h, 5 µM (in vitro [1]) [µL/min/mg]	microsomal CLint at 1 h, 5 µM (in vitro [2]) [µL/min/mg]	solubility (physchem) [µM]	Kd [3] [nM]	Tmax [4] [min]	half-life [5] [min]	Structure (SMILES)
7.3	3.5	911 (≈ 353 µg/mL)	0.7	–	–	Cc1cc(C)c2cc1C(=O)NCCOC(=O)NCCSc1cc-2nc(N)n1
21	9.3	111 (≈ 43 µg/mL)	0.8	–	–	Cc1cc(C)c2cc1C(=O)NCCNC(=O)OCCSc1cc-2nc(N)n1
3.6	5.4	106 (≈ 40.9 µg/mL)	0.61	–	–	Cc1cc(C)c2cc1C(=O)NCCNC(=O)CCCSc1cc-2nc(N)n1
3.5	5.1	553 (≈ 221 µg/mL)	–	–	–	Cc1cc(C)c2cc1C(=O)NCCCCNC(=O)CCSc1cc-2nc(N)n1
15	1	117 (≈ 45.1 µg/mL)	0.65	–	–	Cc1cc(C)c2cc1C(=O)NCCCC(=O)NCCSc1cc-2nc(N)n1
1.8	1.7	169 (≈ 69.9 µg/mL)	–	–	–	Cc1cc(C)c2cc1C(=O)NCCCCCNC(=O)CCSc1cc-2nc(N)n1
–	–	69 (≈ 29 µg/mL)	–	–	–	Cc1cc(C)c2cc1C(=O)NCCCCOc1cccc(c1)Sc1cc-2nc(N)n1
